From patent EP3125690B1, “HERBICIDAL MIXTURE OF CAROTENOID BIOSYNTHESIS INHIBITING COMPOUND AND AN AHAS/ALS INHIBITING COMPOUND AND USES THEREOF” (Adama Agan Ltd., priority 2014, dated 2015)

Assays:
Assay type in all cases: in vivo
Persicaria lapathifolia [1] = experiment: Herbicide efficacy trial with Colby calculation, Example 3; conditions: application rate 1000 (ml or gr); for % control observed 13 DAA: 13 days after application; for % control observed 38 DAA: 38 days after application; for % control observed 76 DAA: 76 days after application
Excerpt: (§1) In the context of the present subject matter, the term "synergy" is as defined by Colby S. R. in an article entitled "Calculation of the synergistic and antagonistic responses of herbicide combinations" published in the journal Weeds, 1967, 15, p. 20-22, incorporated herein by reference in its entirety. The action expected for a given combination of three active ingredients can be calculated as follows: E = X + Y−(XY)/(100) [formula] in which E represents the expected percentage of herbicidal control for the combination of the three herbicides at defined doses (for example equal to x, y and z respectively), X is the percentage of herbicidal control observed by aclonifen at a defined dose (equal to x), Y is the percentage of herbicidal control observed by imazamox at a defined dose (equal to y). When the percentage of herbicidal control observed for the combination is greater than the expected percentage, there is a synergistic effect. When the percentage of control observed for the combination is equal to the expected percentage, there is an additive effect and wherein the percentage of herbicidal control observed for the combination is lower than the expected percentage, there is an antagonistic effect.
Four herbicide treatments were compared: • a) Imazamox 20 g/l + Aclonifen 300 g/l SC formulation (Application Rate of 2.0 l/ha) • b) Imazamox 40 g/l SC + Aclonifen 600 g/l SC tank-mix (Application Rate of 1.0 l/ha + 1.0 l/ha) • c) Imazamox 40 g/l SL formulation (commercially available as Pulsar) (Application Rate of 1.0 l/ha) • d) Aclonifen 600 g/l SC formulation (Application Rate of 1.0 l/ha)
The above treatments were applied to a variety of weeds. The results are based on a 0 to 100 scale where 0 is no effect and 100 is complete control. Table 5 compares the individual applications aclonifen and imazamox with the tank-mix of the two active ingredients as well as the ready-mix formulation of aclonifen and imazamox.

Persicaria lapathifolia [2] = experiment: Herbicide efficacy trial with Colby calculation, Example 2; conditions: application rate 1000 (ml or gr)
Excerpt: as §1
(§2) Three herbicide treatments were compared: • a) Imazamox 40 g/l SC + Aclonifen 600 g/l SC tank-mix (Application Rate of 1.0 l/ha + 1.0 l/ha) • b) Imazamox 40 g/l SL formulation (commercially available as Pulsar) (Application Rate of 1.0 l/ha) • c) Aclonifen 600 g/l SC formulation (Application Rate of 1.0 l/ha)
(§3) The above treatments were applied to a variety of weeds. The results are based on a 0 to 100 scale where 0 is no effect and 100 is complete control. Table 3-4 compares the individual applications of aclonifen and imazamox with the tank of the two active ingredients.
(§4) The trial detailed in Tables 1-4 were conducted on Sunflower crop in France, Hungary and Romania.

Setaria pumila [3] = experiment: as above; conditions: application rate 1000 (ml or gr); for % control observed 41 DAA: 41 days after application; for % control observed 62 DAA: 62 days after application; for % control observed 107 DAA: 107 days after application
Excerpt: as §1, §2, §3, §4

Solanum Nigrum = experiment: as above; conditions: application rate 1000 (ml or gr)
Excerpt: as §1, §2, §3, §4

Amaranthus retroflexus = experiment: Herbicide efficacy trial in sunflower crop, Example 1 (0 to 100 scale); conditions: avg, n 2
Excerpt: (§5) Four herbicide treatments were compared: • a) Imazamox 20 g/l + Aclonifen 300 g/l SC formulation (Application Rate of 2.0 l/ha) • b) Imazamox 40 g/l SC + Aclonifen 600 g/l SC tank-mix (Application Rate of 1.0 l/ha + 1.0 l/ha) • c) Imazamox 40 g/l SL formulation (commercially available as Pulsar) (Application Rate of 1.0 1/ha) • d) Aclonifen 600 g/l SC formulation (Application Rate of 1.0 l/ha)
(§6) The above treatments were applied to a variety of weeds. The results are based on a 0 to 100 scale where 0 is no effect and 100 is complete control. Table 2 compares the individual applications aclonifen and imazamox with the tank-mix of the two active ingredients as well as the ready-mix formulation of aclonifen and imazamox.
as §4

Persicaria lapathifolia [4] = experiment: as above; conditions: avg, n 1
Excerpt: as §5, §6, §4

Abutilon theophrasti = experiment: as above; conditions: avg, n 1
Excerpt: as §5, §6, §4

Chenopodium album = experiment: as above; conditions: avg, n 6
Excerpt: as §5, §6, §4

Setaria pumila [5] = experiment: as above; conditions: avg, n 1
Excerpt: as §5, §6, §4

Mercurialis annua = experiment: as above; conditions: avg, n 2
Excerpt: as §5, §6, §4

Sonchus arvensis = experiment: as above; conditions: avg, n 1
Excerpt: as §5, §6, §4

Hibiscus trionum = experiment: as above; conditions: avg, n 2
Excerpt: as §5, §6, §4

Fallopia convolvulus = experiment: as above; conditions: avg, n 1
Excerpt: as §5, §6, §4

Echinochloa crus-galli = experiment: as above; conditions: avg, n 3
Excerpt: as §5, §6, §4

Calystegia sepium = experiment: as above; conditions: avg, n 1
Excerpt: as §5, §6, §4

Conyza Canadensis = experiment: as above; conditions: avg, n 1
Excerpt: as §5, §6, §4

Ambrosia artemisiifolia = experiment: as above; conditions: avg, n 2
Excerpt: as §5, §6, §4

Digitaria sanguinalis = experiment: as above; conditions: avg, n 1
Excerpt: as §5, §6, §4

COCc1cnc(C2=NC(C)(C(C)C)C(=O)N2)c(C(=O)O)c1 (racemic) [Imazamox SL, 2-[(RS)-4-isopropyl-4-methyl-5-oxo-2-imidazolin-2-yl]-5-methoxymethylnicotinic acid]
% control observed 13 DAA (Persicaria lapathifolia [1]; 40 g/ha): 79.47%
% control observed 38 DAA (Persicaria lapathifolia [1]; 40 g/ha): 58.11%
% control observed 76 DAA (Persicaria lapathifolia [1]; 40 g/ha): 55.50%
% control observed (Persicaria lapathifolia [2]; 40 g/ha): 67.90%
% control observed (Setaria pumila [3]; 40 g/ha): 81%
% control observed 41 DAA (Setaria pumila [3]; 40 g/ha): 20.00%
% control observed 62 DAA (Setaria pumila [3]; 40 g/ha): 90.00%
% control observed 107 DAA (Setaria pumila [3]; 40 g/ha): 81.00%
% control observed (Solanum Nigrum; 40 g/ha): 79.45%
Efficacy (% Control) (Amaranthus retroflexus; 40 g ai/ha, 1,00 l/ha): 93.3%
Efficacy (% Control) (Persicaria lapathifolia [4]; 40 g ai/ha, 1,00 l/ha): 67.9%
Efficacy (% Control) (Abutilon theophrasti; 40 g ai/ha, 1,00 l/ha): 90.5%
Efficacy (% Control) (Chenopodium album; 40 g ai/ha, 1,00 l/ha): 91.0%
Efficacy (% Control) (Setaria pumila [5]; 40 g ai/ha, 1,00 l/ha): 81.0%
Efficacy (% Control) (Mercurialis annua; 40 g ai/ha, 1,00 l/ha): 69.0%
Efficacy (% Control) (Sonchus arvensis; 40 g ai/ha, 1,00 l/ha): 84.6%
Efficacy (% Control) (Hibiscus trionum; 40 g ai/ha, 1,00 l/ha): 58.1%
Efficacy (% Control) (Fallopia convolvulus; 40 g ai/ha, 1,00 l/ha): 92.8%
Efficacy (% Control) (Echinochloa crus-galli; 40 g ai/ha, 1,00 l/ha): 85.1%
Efficacy (% Control) (Calystegia sepium; 40 g ai/ha, 1,00 l/ha): 80.5%
Efficacy (% Control) (Conyza Canadensis; 40 g ai/ha, 1,00 l/ha): 37.5%
Efficacy (% Control) (Ambrosia artemisiifolia; 40 g ai/ha, 1,00 l/ha): 88.4%
Efficacy (% Control) (Digitaria sanguinalis; 40 g ai/ha, 1,00 l/ha): 75.0%

Nc1c([N+](=O)[O-])ccc(Oc2ccccc2)c1Cl [Aclonifen SC, 2-Chlor-6-nitro-3-phenoxyanilin]
% control observed 13 DAA (Persicaria lapathifolia [1]; 600 g/ha): 71.02%
% control observed 38 DAA (Persicaria lapathifolia [1]; 600 g/ha): 44.14%
% control observed 76 DAA (Persicaria lapathifolia [1]; 600 g/ha): 38.25%
% control observed (Persicaria lapathifolia [2]; 600 g/ha): 38.30%
% control observed (Setaria pumila [3]; 600 g/ha): 20%
% control observed 41 DAA (Setaria pumila [3]; 600 g/ha): 11.00%
% control observed 62 DAA (Setaria pumila [3]; 600 g/ha): 20.00%
% control observed 107 DAA (Setaria pumila [3]; 600 g/ha): 20.00%
% control observed (Solanum Nigrum; 600 g/ha): 33.33%
Efficacy (% Control) (Amaranthus retroflexus; 600 g ai/ha, 1,00 l/ha): 72.0%
Efficacy (% Control) (Persicaria lapathifolia [4]; 600 g ai/ha, 1,00 l/ha): 38.3%
Efficacy (% Control) (Abutilon theophrasti; 600 g ai/ha, 1,00 l/ha): 50.0%
Efficacy (% Control) (Chenopodium album; 600 g ai/ha, 1,00 l/ha): 85.1%
Efficacy (% Control) (Setaria pumila [5]; 600 g ai/ha, 1,00 l/ha): 20.0%
Efficacy (% Control) (Mercurialis annua; 600 g ai/ha, 1,00 l/ha): 74.7%
Efficacy (% Control) (Sonchus arvensis; 600 g ai/ha, 1,00 l/ha): 84.7%
Efficacy (% Control) (Hibiscus trionum; 600 g ai/ha, 1,00 l/ha): 81.3%
Efficacy (% Control) (Fallopia convolvulus; 600 g ai/ha, 1,00 l/ha): 91.0%
Efficacy (% Control) (Echinochloa crus-galli; 600 g ai/ha, 1,00 l/ha): 78.1%
Efficacy (% Control) (Calystegia sepium; 600 g ai/ha, 1,00 l/ha): 66.8%
Efficacy (% Control) (Conyza Canadensis; 600 g ai/ha, 1,00 l/ha): 25.0%
Efficacy (% Control) (Ambrosia artemisiifolia; 600 g ai/ha, 1,00 l/ha): 78.9%
Efficacy (% Control) (Digitaria sanguinalis; 600 g ai/ha, 1,00 l/ha): 62.5%
